Where a name gives a salt, the structure may show the parent alone. Read-outs that look alike come from different tables or passages of the source.
Legend:
[1] = test system: p53+ and p53− variants of human breast cancer MCF-7 cells and A549 tumor cells; assay: Assay for cytotoxicity (J. Immunol. Methods 65:55-63), SPA-110 compared to hemiasterlin; assay type: cell-based; settings: MCF-7 p53+ and p53− and A549 cells; FIGS. 5A and 5B; naturally occurring compound = hemiasterlin
Protocol: Cytotoxicity of SPA-110 compared to hemiasterlin as against p53+ and p53− variants of human breast cancer MCF-7 cells and A549 tumor cells was determined according to the methods described in J. Immunol. Methods 65:55-63 (1983).

[2] = test system: human colon carcinoma LOVO; assay type: in vivo, Athymic nu/nu female mice; settings: for % T/C day 7 / % T/C day 14 / % T/C day 21 / % T/C day 28: LOVO xenograft, SPA-110 intravenously, Vincristine intraperitoneally, p≦0.05; for % T/C day 7: day 7 post staging; for % T/C day 14: day 14 post staging; for % T/C day 21: day 21 post staging; for % T/C day 28: day 28 post staging
Protocol: The compound SPA-110 was evaluated in vivo using standard pharmacological test procedures which measure its ability to inhibit the growth of human tumor xenografts. The human colon carcinoma LOVO (American Type Culture Collection, Rockville, Md. #CCL-229) was grown in tissue culture in RPMI supplemented with 10% FBS. Athymic nu/nu female mice (Charles River, Wilmington, Mass.) were injected sub-cutaneously in the flank area with 7.0×10^6 LOVO cells. When tumors attained a mass of between 80 and 120 mg, the mice were randomized into treatment groups (day zero). Animals were treated intravenously once a day on days 1, 5, and 9 post staging (day zero) with 1 mg/kg/dose of SPA-110 prepared in 2.5% ethanol in saline or with saline as the vehicle control. Some animals were treated intraperitonealy once a day on days 1, 5 and 9 post staging with 1 mg/kg/dose Vincristine as a positive control. Tumor mass was determined every 7 days [(length×width^2)/2] for 28 days post staging. RTG or relative tumor growth (Mean tumor mass on days 7, 14, 21 and 28 divided by the mean tumor mass on day zero) was determined for each treatment group. % T/C was calculated as RTC (treated group) % RTC (vehicle control group)×100. Statistical analysis (Student-t-test) of log relative tumor growth was used to compare treated verses control group in each experiment. A p-value (p≦0.05), which indicates a statistically significant reduction in relative tumor growth, was obtained in each case. 5 of 5 animals treated at day 28 with SPA-110 survived. 9 of 10 animals treated at day 28 with vincristine survived.

MCF-7 mp53− cells = assay: Assay for antimitotic activity, ELISA with mitosis-specific antibody TG-3; assay type: cell-based, human; settings: 20 hours incubation, FIG. 6, naturally occurring compound = hemiasterlin
Protocol: Antimitotic activity is detected by enzyme-linked immunosorbent assay using a mitosis-specific antibody, TG-3 (from Albert Einstein College of Yeshiva University, Bronx, N.Y.; and see: PCT application published Jul. 4, 1996 under WO96/20218).
MCF-7 mp 53^− cells (expressing a dominant-negative p53 mutation as described in S. Fan, et al. […] Cancer Research 55:1649-1654) were cultured as monolayers in DMEM supplemented with 10% fetal bovine serum, 2 mM L-glutamine, 50 units/ml penicillin, 50 μg/ml streptomycin, 1 mM sodium pyruvate, MEM non-essential amino acids, 1 μg/ml bovine insulin, 1 μg/ml hydrocortisone, 1 ng/ml human epidermal growth factor, and 1 ng/ml β-estradiol at 37° C. in humidified 5% CO2. The cells were seeded at 10,000 cells per well of 96-well polystyrene tissue culture plates (Falcon) in a volume of 200 μl cell culture medium. The cells were allowed to grow for 24 hours and compounds were added at about 1 μg/ml or 10 μg/ml (from 1000-fold stocks in dimethylsulfoxide) and the cells were incubated for 20 hours. Nocodazole (Sigma) served as a positive control. […] 100 μl of 120 mM Na2HPO41 100 mM citric acid, pH 4.0 containing 0.5 mg/ml 2,2′-azino-bis(3-ethylbenzthiazoline-6-sulfonic acid) and 0.01% hydrogen peroxide was added for 1 hour at room temperature and the plates were read at 405 nm using a BioTek plate reader.

Row | SMILES | Cytotoxicity compared to hemiasterlin [1] | Animals surviving at day 28 ([2]; LOVO xenograft mice, day 28, 1 mg/kg/dose on days 1, 5, 9) | % T/C day 7 ([2]; 1 mg/kg/dose on days 1, 5, 9) [%] | % T/C day 14 ([2]; 1 mg/kg/dose on days 1, 5, 9) [%] | % T/C day 21 ([2]; 1 mg/kg/dose on days 1, 5, 9) [%] | % T/C day 28 ([2]; 1 mg/kg/dose on days 1, 5, 9) [%] | Antimitotic activity compared to hemiasterlin (MCF-7 mp53− cells) | Animals surviving at day 28 ([2]; female, athymic nu/nu, mouse, in vivo, 1 mg/kg, 28 days)
1 | CN[C@H](C(=O)NC(C(=O)N(C)C(/C=C(\C)C(=O)O)C(C)C)C(C)(C)C)C(C)(C)c1ccccc1 (stereo in doubt) [SPA-110, SPA 110-trifluoroacetate salt] | more cytotoxic in some instances than the naturally occurring compound | 5 of 5 | 16 | 18 | 30 | 47 | considerably greater antimitotic activity than the naturally occurring compound | 
2 | CC[C@]1(O)C[C@H]2CN(CCc3c([nH]c4ccccc34)[C@@](C(=O)OC)(c3cc4c(cc3OC)N(C=O)[C@H]3[C@@](O)(C(=O)OC)[C@H](OC(C)=O)[C@]5(CC)C=CCN6CC[C@]43[C@@H]65)C2)C1 [Vincristine, reference compound] |  |  | 34 | 37 | 44 | 47 |  | 9 of 10

Reference: patent US7579323B1, “Hemiasterlin analogs” (The University of British Columbia, priority 1997, dated 2009)
